Columns and labels:
Type in all cases: cell-based
[1] = system: Aspergillus niger; assay: Expected efficacy of antifungal agents
[2] = system: Fusarium species; assay: Expected efficacy of antifungal agents
[3] = system: Scedosporium apiospermum; assay: Expected efficacy of antifungal agents
[4] = system: Aspergillus flavus; assay: Expected efficacy of antifungal agents
[5] = system: Aspergillus terreus; assay: Expected efficacy of antifungal agents
[6] = system: Candida species; assay: Expected efficacy of antifungal agents
[7] = system: Aspergillus fumigatus; assay: Expected efficacy of antifungal agents
[8] = system: Leishmania infantum; assay: Expected efficacy of antifungal agents
[9] = system: Paracoccidioides brasiliensis; assay: Expected efficacy of antifungal agents
[10] = system: Cryptococcus neoformans; assay: Expected efficacy of antifungal agents
[11] = system: Coccidioides immitis; details: expected efficacy
[12] = system: Histoplasma capsulatum; details: expected efficacy
[13] = system: Leishmania donovani; assay: Expected efficacy of antifungal agents
[14] = system: Blastomyces dermatitidis; assay: Expected efficacy of antifungal agents
[15] = system: Trichophyton mentagrophytes; assay: Expected efficacy of antifungal agents
[16] = system: Trichophyton rubrum; assay: Expected efficacy of antifungal agents
[17] = system: Histoplasma duboisii; details: expected efficacy
[18] = system: Sporothrix schenckii; assay: Expected efficacy of antifungal agents

C[C@@H](c1ncncc1F)[C@](O)(Cn1cncn1)c1ccc(F)cc1F [Voriconazole]
yes: efficacy against Aspergillus niger [1] | efficacy against Fusarium species [2] | efficacy against Scedosporium apiospermum [3] | efficacy against Aspergillus flavus [4] | efficacy against Aspergillus terreus [5] | efficacy against Candida species [6] | efficacy against Aspergillus fumigatus [7]

C[C@@H]1[C@H](O)[C@@H](C)/C=C/C=C/C=C/C=C/C=C/C=C/C=C/[C@H](O[C@@H]2O[C@H](C)[C@@H](O)[C@H](N)[C@@H]2O)C[C@@H]2O[C@](O)(C[C@@H](O)C[C@@H](O)[C@H](O)CC[C@@H](O)C[C@@H](O)CC(=O)O[C@H]1C)C[C@H](O)[C@H]2C(=O)O [Amphotericin]
yes: efficacy against Leishmania infantum [8] | efficacy against Paracoccidioides brasiliensis [9] | efficacy against Aspergillus niger [1] | efficacy against Cryptococcus neoformans [10] | efficacy against Aspergillus flavus [4] | efficacy against Coccidioides immitis [11] | efficacy against Histoplasma capsulatum [12] | efficacy against Aspergillus terreus [5] | efficacy against Candida species [6] | efficacy against Aspergillus fumigatus [7] | efficacy against Leishmania donovani [13] | efficacy against Blastomyces dermatitidis [14]

Itraconazole
yes: efficacy against Trichophyton mentagrophytes [15] | efficacy against Paracoccidioides brasiliensis [9] | efficacy against Cryptococcus neoformans [10] | efficacy against Aspergillus flavus [4] | efficacy against Coccidioides immitis [11] | efficacy against Candida species [6] | efficacy against Aspergillus fumigatus [7] | efficacy against Trichophyton rubrum [16] | efficacy against Blastomyces dermatitidis [14] | efficacy against Histoplasma duboisii [17] | efficacy against Sporothrix schenckii [18]

— patent US9707229B2, “Compositions and methods for treating an infection” (CMPD LICENSING, LLC, priority 2015, dated 2017)
